# Measurements from US20080279843A1, “Method For Improving Insulin Sensitivity By Administering an Inhibitor of Antitrypsin” (Essential SkinCare, LLC, priority 2003, published 2008).
# Experiments:
# [1] = system: differentiated rat L6 muscle cells; assay: Synthesis of [14C]total lipid from radiolabeled glucose; assay type: cell-based; conditions: FIG. 4C, 5 hours
# Experimental: (§1) Rat L6 skeletal muscle cells were obtained from the American Type Culture Collection, Rockville, Md. L6 cell monolayers were induced to differentiate in Minimal Essential Medium (MEM) containing 2% (v/v) fetal bovine serum (FBS) and 1% (v/v) antibiotic/antimycotic solution. The cells were fed fresh medium every 48 hours. Myoblast differentiation, which occurred by about the 7-9th day, was monitored by phase contrast microscopy. Differentiated L6 cells are widely used models for studying glucose metabolism in the skeletal muscle. The present study was focused on these cells, because skeletal muscle accounts for about 70-80% of total blood glucose metabolism in the human body.
# To examine cellular glucose uptake and metabolism, differentiated (attached) cells in 12-well plates were incubated at 37° C. in a CO2 incubator (95% air: 5% CO2) with D-[^14C]glucose (1 μCi/mL) in 2% FBS-containing medium containing 5.5 mM unlabeled glucose for 0.5-6 hours as indicated at the corresponding Figures. […] Cells were washed twice with 3 ml medium to remove traces of medium containing unincorporated radioactivity. […]
# Aliquots of the upper and lower phases were taken to scintillation vials to determine the amounts of radiolabeled glucose and total lipids, respectively, by liquid scintillation counting. […] No additional radioactivity could be removed from the well by neutralized 30% KOH. […]
# [2] = system: differentiated rat L6 muscle cells; assay: Cellular uptake of D-[14C]glucose; assay type: cell-based
# Experimental: as §1
# To examine cellular glucose uptake and metabolism, differentiated (attached) cells in 12-well plates were incubated at 37° C. in a CO2 incubator (95% air: 5% CO2) with D-[^14C]glucose (1 μCi/mL) in 2% FBS-containing medium containing 5.5 mM unlabeled glucose for 0.5-6 hours as indicated at the corresponding Figures. At the termination of incubation, the medium was removed. An aliquot of the medium was taken to determine the loss of [^14C]glucose from the medium which corresponds to its uptake by cells. Cells were washed twice with 3 ml medium to remove traces of medium containing unincorporated radioactivity. Ice-cold 99.8% methanol/0.2% water (v/v) mixture (1 ml) was then added to the monolayers and cells were extracted for 2 hours at −20° C. […] The methanol phase (1 ml) and a following 1 ml methanol wash were added to 2 ml chloroform followed by the addition of 3 ml water. Of the resulting two phases (separation was facilitated by brief centrifugation), the lower phase contained the total radiolabeled lipids, while the upper phase contained [^14C]glucose.
# Aliquots of the upper and lower phases were taken to scintillation vials to determine the amounts of radiolabeled glucose and total lipids, respectively, by liquid scintillation counting. Precipitated [^14C]glycogen was suspended in 0.75 ml of 1 M NaOH and transferred to scintillation vial. This procedure was repeated with another 0.75 ml aliquot of NaOH. To neutralize the suspension, […] (approximately 150 μL) was then added to the vials, followed by the addition of 8.5 ml Ecolume (scintillation fluid). While the 1 M NaOH suspension contained some particulate material (mostly protein which was not labeled with radiolabeled glucose), no precipitate remained in the suspension after addition of Ecolume. […] No additional radioactivity could be removed from the well by neutralized 30% KOH.
# Three groups of differentiated L6 cells, incubated in 12-well plates in 2% FBS-containing medium, were treated as follows. A first control group ([…]) was untreated. A second group (▴) was treated with 500 nM insulin for 30 min. A third group (▪) was treated first with 0.4 mg/ml of AT followed by an addition of 500 nM insulin for 30 min. Following the addition of D-[^14C]glucose, each group was incubated in the continuous presence of insulin and AT, as described above, for 0.5-6 hours.
# Four groups of differentiated L6 cells, incubated in 12-well plates in 2% FBS-containing medium, were treated as follows. A first control group was untreated. A second group was treated with 500 nM insulin for 30 min. A third group was treated with 0.05 to 0.4 mg/ml of AT for 10 min. Finally, a fourth group was treated with 0.05 to 0.4 mg/ml of AT for 10 min followed by the addition of 500 nM insulin for 30 min. […]
# C57/Black female mice [3] = assay: Glucose tolerance test with insulin and purified AT (Example 3); assay type: in vivo; conditions: highly purified AT 1.2 mg/mouse i.p. 24 h prior to insulin; glucose 3 g/kg i.p.
# Experimental: C57/Black female mice weighing 23-25 g were fasted for 16 hours. Five animals were used for each of the three treatment groups. The first treatment group received intraperitoneal injections of 1200 μg purified AT, i.e. AT purified by the procedure of Example 1. Exactly 23 hours and 45 minutes after the AT was administered to the first treatment group, the animals in the first and second treatment group received 0.5 I.U. of insulin. Exactly 15 minutes after the insulin was administered (i.e., 24 hours after AT was administered to the first treatment group), glucose (3 g/kg) was injected intraperitoneally into the first, second and third treatment group. Blood samples were immediately measured with the fast Glucose C test (Wako Chemicals Inc. Richmond, Va., USA). The data presented are the mean ±S.D. of five determinations, one with each animal.
# C57/Black female mice [4] = assay: Glucose tolerance test with purified AT alone (Example 4); assay type: in vivo; conditions: mice fasted 24 h; for Glucose level: purified AT 1200 μg i.p. 24 h before glucose 3 g/kg i.p., mean ± S.D., n=4
# Experimental: C57/Black female mice, weighing 22-25 g were fasted for 24 hours. Four animals were used for each of two groups. The first group received intraperitoneal injections of 1200 μg purified AT, i.e. AT purified by the procedure of Example 1. Exactly 24 hours after the AT was administered to the first group, glucose (3 g/kg) was injected intraperitoneally into mice in both groups. Blood samples were immediately measured with the fast Glucose C test (Wako Chemicals Inc. Richmond, Va., USA). The experiment was repeated a second time.
# The data presented for each experiment are the mean ±S.D. of four determinations, one with each animal.
# C57/Black female mice [5] = assay: Glucose tolerance test with insulin and commercial AT (Example 2); assay type: in vivo
# Experimental: C57/Black female mice weighing 22-23 g were fasted for 16 hours. Four animals were used for each of four treatment groups. The first and fourth treatment group received intraperitoneal injections of 1500 μg commercially obtained AT. Exactly 23 hours and 45 minutes after the AT was administered to the first and fourth treatment group, the animals in the first and second treatment group received 0.5 I.U. of insulin. Exactly 15 minutes after the insulin was administered (i.e., 24 hours after the AT was administered to the first treatment group), glucose (3 g/kg) was injected intraperitoneally into the first, second and third treatment groups. Blood samples were taken from the eyes (canthus), and glucose concentrations in whole blood samples were immediately measured with the fast Glucose C test (Wako Chemicals USA Inc., Richmond, Va., USA). The data presented are the mean ±S.D. of four determinations, one with each animal.
# [6] = highly purified AT 1200 μg i.p. 24 h before glucose 3 g/kg i.p.
substance,measurement,setting,value
α1-antitrypsin [AT],Effect of AT on cellular level of [14C]total lipid in the absence of insulin,[1]; 0.05 to 0.4 mg/ml AT,did not significantly affect
same,Decrease of synthesis of [14C]total lipid by AT in the presence of insulin,"[1]; 0.2 to 0.4 mg/ml AT, 500 nM insulin",at least 50%
same,"Effect of AT on the insulin effect on cellular [14C]glucose, short incubation","[2]; 0.4 mg/ml AT, 500 nM insulin, 30 min incubation",no such inhibitory effects
same,Effect of AT on insulin-stimulated uptake of D-[14C]glucose,"[2]; FIG. 3A, 0.4 mg/ml purified AT, incubations for 2 hrs or 6 hours",inhibited both insulin effects
same,Effect of AT on cellular level of [14C]glucose in the absence of insulin,"[2]; FIG. 4A, 0.05 to 0.4 mg/ml AT, 5 hours",did not significantly affect
same,Decrease of cellular level of [14C]glucose by AT in the presence of insulin,"[2]; FIG. 4A, 0.2 to 0.4 mg/ml AT, 500 nM insulin, 5 hours",at least 50%
same,Effect of AT on the action of insulin on blood glucose level,C57/Black female mice [3],blocked the action of insulin
same,Glucose level,"C57/Black female mice [4]; Experiment 1, 0 min",2.3 ± 0.3 mM
same,Glucose level,"C57/Black female mice [4]; Experiment 1, 30 min",8.5 ± 0.6 mM
same,Glucose level,"C57/Black female mice [4]; Experiment 1, 60 min",7.1 ± 0.5 mM
same,Glucose level,"C57/Black female mice [4]; Experiment 1, 120 min",6.1 ± 0.4 mM
same,Glucose level,"C57/Black female mice [4]; Experiment 1, 180 min",4.7 ± 0.5 mM
same,Glucose level,"C57/Black female mice [4]; Experiment 2, 0 min",2.7 ± 0.3 mM
same,Glucose level,"C57/Black female mice [4]; Experiment 2, 30 min",7.9 ± 0.3 mM
same,Glucose level,"C57/Black female mice [4]; Experiment 2, 60 min",6.5 ± 0.5 mM
same,Glucose level,"C57/Black female mice [4]; Experiment 2, 120 min",5.9 ± 0.4 mM
same,Glucose level,"C57/Black female mice [4]; Experiment 2, 180 min",4.5 ± 0.4 mM
same,Effect of AT on blood glucose level in the first 60 min after glucose,C57/Black female mice [4]; [6],no major effects in the first 60 min
same,Effect of AT on return of blood glucose level to near-normal level during the next 120 min,C57/Black female mice [4]; [6],clearly delayed return of blood glucose level to near-normal level
same,Effect of AT on the action of insulin on blood glucose level,"C57/Black female mice [5]; FIG. 2, AT 1.5 mg/mouse i.p. 24 h prior, insulin 0.5 I.U., glucose 3 g/kg i.p.",blocked the action of insulin
same,Effect of AT alone on the blood glucose level,"C57/Black female mice [5]; FIG. 2 insert, AT 1.5 mg/mouse i.p., no insulin, no glucose (fourth treatment group)",no significant effect on the blood glucose level
